Reference: patent US8575158B2, “1-phenyl-substituted heterocyclyl derivatives and their use as prostaglandin D2 receptor modulators” (Actelion Pharmaceuticals Ltd., priority 2010, dated 2013)

Target: T1, hCRTH2 receptor (Homo sapiens, UniProt Q9Y5Y4)
T1 construct: expressed in transfected cells; host or cells: HEK293
T1 sequence (Q9Y5Y4 1-395): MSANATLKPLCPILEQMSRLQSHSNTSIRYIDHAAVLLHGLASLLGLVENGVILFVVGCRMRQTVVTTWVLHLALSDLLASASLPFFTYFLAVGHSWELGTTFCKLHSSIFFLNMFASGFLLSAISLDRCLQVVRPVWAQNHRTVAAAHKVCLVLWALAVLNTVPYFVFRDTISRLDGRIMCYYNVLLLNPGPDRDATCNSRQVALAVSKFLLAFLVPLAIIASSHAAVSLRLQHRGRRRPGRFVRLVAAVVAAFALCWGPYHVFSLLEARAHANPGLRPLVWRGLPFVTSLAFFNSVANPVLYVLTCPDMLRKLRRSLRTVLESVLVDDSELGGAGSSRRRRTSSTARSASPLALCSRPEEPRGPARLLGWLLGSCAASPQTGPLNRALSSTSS
Assay: Radioligand displacement assay (3H-PGD2) on hCRTH2 receptor membranes
Format: binding
Details: antagonistic activity

[1] = 3H-PGD2 radioligand displacement, HEK293-hCRTH2 membranes
[2] = 3H-PGD2 displacement on HEK293-hCRTH2 membrane fragments

| Compound | IC50 [1] | IC50 [2] |
| --- | --- | --- |
| Cc1ccc(COC(=O)N2CCc3ccccc3C2c2cc(Cl)ccc2OCC(=O)O)cc1 (racemic) [Example 360] | 18.8 nM | – |
| O=C(O)COc1ccc(-n2nccn2)cc1C1c2ccccc2CCN1C(=O)OCc1ccccc1 (racemic) [Example 224, (±)-1-(2-Carboxymethoxy-5-[1,2, 3]triazol-2-yl-phenyl)-3,4-dihydro-1H-isoquinoline-2-carboxylic acid benzyl ester] | – | 12.7 nM |
| Cn1ccc(COC(=O)N2CCc3ccccc3C2c2cc(Cl)ccc2OCC(=O)O)n1 (racemic) [Example 263] | – | 7.91 nM |
| O=C(O)COc1ccc(C(F)(F)F)cc1C1c2ccccc2CCN1C(=O)OCc1ccccc1 (racemic) [Example 20, (±)-1-(2-Carboxymethoxy-5-trifluoromethyl-phenyl)-3,4-dihydro-1H-isoquinoline-2-carboxylic acid benzyl ester] | – | 50.7 nM |
| O=C(O)COc1ccc(Cl)cc1C1c2ccccc2CCN1C(=O)[C@@H]1C[C@H]1c1ccccc1F (mixture of isomers) [Example 160] | – | 16.4 nM |
| O=C(O)COc1ccc(Cl)cc1[C@@H]1c2ccc(F)c(F)c2CCN1C(=O)OCc1nccs1 [Example 299, (S)-1-(2-Carboxymethoxy-5-chloro-phenyl)-5,6-difluoro-3,4-dihydro-1H-isoquinoline-2-carboxylic acid thiazol-2-ylmethyl ester] | 6.83 nM | – |
| Cc1nn(CCC(=O)N2Cc3ccccc3C2c2cc(Cl)ccc2OCC(=O)O)c2cc(Cl)ccc12 (single isomer, unassigned) [Example 532, (4-Chloro-2-{2-[3-(6-chloro-3-methyl-indazol-1-yl)-propionyl]-2,3-dihydro-1H-isoindol-1-yl}-phenoxy)-acetic acid] | 40.7 nM | – |
| Cc1ccc(COCC(=O)N2CCc3ccccc3C2c2cc(F)ccc2OCC(=O)O)cc1 (racemic) [Example 194] | – | 90.2 nM |
| O=C(O)COc1ccc(Cl)cc1[C@@H]1c2ccc(F)c(F)c2CCN1C(=O)OCc1noc2ccccc12 [Example 323, (S)-1-(2-Carboxymethoxy-5-chloro-phenyl)-5,6-difluoro-3,4-dihydro-1H-isoquinoline-2-carboxylic acid benzo[d]isoxazol-3-ylmethyl ester] | 1.2 nM | – |
| O=C(O)COc1ccc(Cl)cc1C1c2ccccc2CCN1C(=O)Cc1ccccc1Cl (racemic) [Example 71, (±)-(4-Chloro-2-{2-[2-(2-chloro-phenyl)-acetyl]-1,2,3,4-tetrahydro-isoquinolin-1-yl}-phenoxy)-acetic acid] | – | 291 nM |
| Cc1nn(CCC(=O)N2Cc3ccccc3C2c2cc(Cl)ccc2OCC(=O)O)c2ccccc12 (single isomer, unassigned) [Example 533, (4-Chloro-2-{2-[3-(3-methyl-indazol-1-yl)-propionyl]-2,3-dihydro-1H-isoindol-1-yl}-phenoxy)-acetic acid] | 6.09 nM | – |
| O=C(O)COc1ccc(Cl)cc1C1c2ccccc2CCN1C(=O)OCc1c(F)cccc1Cl (racemic) [Example 252] | – | 3.98 nM |
| O=C(O)COc1ccc(F)cc1[C@@H]1c2ccccc2CCN1C(=O)[C@@H]1C[C@H]1c1ccccc1 (single isomer, unassigned) [Example 29] | – | 7.72 nM |
| Cc1nc2ccccc2n1CCOC(=O)N1CCc2c(ccc(F)c2F)[C@H]1c1cc(Cl)ccc1OCC(=O)O [Example 318] | 138 nM | – |
| O=C(O)COc1ccc(Cl)cc1C1c2ccccc2CN1C(=O)CCn1ncc2cccc(Cl)c21 (single isomer, unassigned) [Example 548] | 715 nM | – |
| O=C(O)COc1ccc(Cl)cc1C1c2ccccc2CCN1C(=O)CCn1ccc2ccc(F)cc21 (racemic) [Example 388] | 25.7 nM | – |
| O=C(O)COc1ccc(Cl)cc1C1c2ccccc2CCN1C(=O)Cn1cc2ccccc2n1 (racemic) [Example 80, (±)-{4-Chloro-2-[2-(2-indazol-2-yl-acetyl)-1,2,3,4-tetrahydro-isoquinolin-1-yl]-phenoxy}-acetic acid] | – | 46.9 nM |
| O=C(O)COc1ccc(Cl)cc1[C@@H]1c2ccccc2CCN1C(=O)OCc1nccs1 [Example 273, (S)-1-(2-Carboxymethoxy-5-chloro-phenyl)-3,4-dihydro-1H-isoquinoline-2-carboxylic acid thiazol-2-ylmethyl ester] | – | 2.04 nM |
| Cc1[nH]c2ccccc2c1CCC(=O)N1CCc2ccccc2C1c1cc(Cl)ccc1OCC(=O)O (racemic) [Example 73, (±)-(4-Chloro-2-{2-[3-(2-methyl-1H-indol-3-yl)-propionyl]-1,2,3,4-tetrahydro-isoquinolin-1-yl}-phenoxy)-acetic acid] | – | 4.13 nM |

| Compound | IC50 [1] | IC50 [2] |
| --- | --- | --- |
| O=C(O)COc1ccc(F)cc1C1c2ccccc2CCN1C(=O)CNS(=O)(=O)c1cccc(F)c1 (racemic) [Example 207] | – | 347 nM |
| Cn1cncc1COC(=O)N1CCc2c(ccc(F)c2F)[C@H]1c1cc(Cl)ccc1OCC(=O)O [Example 315, (S)-1-(2-Carboxymethoxy-5-chloro-phenyl)-5,6-difluoro-3,4-dihydro-1H-isoquinoline-2-carboxylic acid 3-methyl-3H-imidazol-4-ylmethyl ester] | 2.82 nM | – |
| Cc1nn(CCC(=O)N2Cc3ccccc3C2c2cc(Cl)ccc2OCC(=O)O)c2cccc(F)c12 (single isomer, unassigned) [Example 538, (4-Chloro-2-{2-[3-(4-fluoro-3-methyl-indazol-1-yl)-propionyl]-2,3-dihydro-1H-isoindol-1-yl}-phenoxy)-acetic acid] | 704 nM | – |
| Cc1ccccc1C1CC1C(=O)N1CCc2ccccc2C1c1cc(Cl)ccc1OCC(=O)O (single isomer, unassigned) [Example 153, (±)-{4-Chloro-2-[2-((trans)-2-o-tolyl-cyclopropanecarbonyl)-1,2,3,4-tetrahydro-isoquinolin-1-yl]-phenoxy}-acetic acid (diastereosiomer 1)] | – | 123 nM |
| COc1ccc2c(ccn2CC(=O)N2CCc3ccccc3C2c2cc(Cl)ccc2OCC(=O)O)c1 (racemic) [Example 489] | 319 nM | – |
| Cc1cn(CC(=O)N2CCc3ccccc3C2c2cc(Cl)ccc2OCC(=O)O)c2ccccc12 (racemic) [Example 488] | 108 nM | – |
| O=C(O)COc1ccc(Cl)cc1C1c2ccc(F)cc2CCN1C(=O)[C@@H]1C[C@H]1c1ccccc1C(F)(F)F (mixture of isomers) [Example 429] | 2.21 nM | – |
| O=C(O)COc1ccc(F)cc1C1c2cccc(F)c2CCN1C(=O)OCc1ccccc1 (racemic) [Example 34, (±)-1-(2-Carboxymethoxy-5-fluoro-phenyl)-5-fluoro-3,4-dihydro-1H-isoquinoline-2-carboxylic acid benzyl ester] | – | 7.22 nM |
| Cc1cnn(COC(=O)N2CCc3ccccc3[C@H]2c2cc(Cl)ccc2OCC(=O)O)c1 [Example 292, (S)-1-(2-Carboxymethoxy-5-chloro-phenyl)-3,4-dihydro-1H-isoquinoline-2-carboxylic acid 4-methyl-pyrazol-1-ylmethyl ester] | 2.08 nM | – |
| O=C(O)COc1ccc(Cl)cc1C1c2ccccc2CCN1C(=O)COc1ccc(F)cc1 (racemic) [Example 407] | 34.9 nM | – |
| O=C(O)COc1ccc(Cl)cc1[C@@H]1c2ccc(F)c(F)c2CCN1C(=O)OCCc1cccc(F)c1 [Example 311, (S)-1-(2-Carboxymethoxy-5-chloro-phenyl)-5,6-difluoro-3,4-dihydro-1H-isoquinoline-2-carboxylic acid 2-(3-fluoro-phenyl)-ethyl ester] | 11 nM | – |
| O=C(O)COc1ccc(Cl)cc1[C@@H]1c2ccc(F)cc2CCN1C(=O)OCc1nc2ccccc2o1 [Example 345, (S)-1-(2-Carboxymethoxy-5-chloro-phenyl)-6-fluoro-3,4-dihydro-1H-isoquinoline-2-carboxylic acid benzooxazol-2-ylmethyl ester] | 12.4 nM | – |
| CCCCOC(=O)N1CCc2ccccc2C1c1cc(Cl)ccc1OCC(=O)O (racemic) [Example 266] | – | 24.5 nM |
| O=C(O)COc1ccc(Cl)cc1[C@@H]1c2ccccc2CCN1C(=O)OCc1cccc(F)c1 [Example 355, (S)-1-(2-Carboxymethoxy-5-chloro-phenyl)-3,4-dihydro-1H-isoquinoline-2-carboxylic acid 3-fluoro-benzyl ester] | 2.01 nM | – |
| CCn1nc(C)cc1CCOC(=O)N1CCc2cc(F)ccc2[C@H]1c1cc(Cl)ccc1OCC(=O)O [Example 339, (S)-1-(2-Carboxymethoxy-5-chloro-phenyl)-6-fluoro-3,4-dihydro-1H-isoquinoline-2-carboxylic acid 2-(2-ethyl-5-methyl-2H-pyrazol-3-yl)-ethyl ester] | 11.5 nM | – |
| O=C(O)COc1ccc(F)cc1C1c2cccc(S(=O)(=O)c3ccccc3)c2CCN1C(=O)OCc1ccccc1 (racemic) [Example 187] | – | 241 nM |
| O=C(O)COc1ccc(Cl)cc1C1c2ccccc2CCN1C(=O)CN1CCCc2ccccc21 (racemic) [Example 79, (±)-{4-Chloro-2-[2-(2-3,4-dihydro-2H-quinolin-1-yl-acetyl)-1,2,3,4-tetrahydro-isoquinolin-1-yl]-phenoxy}-acetic acid] | – | 62.9 nM |
| Cc1cccc(C)c1COC(=O)N1CCc2ccccc2C1c1cc(Cl)ccc1OCC(=O)O (racemic) [Example 247] | – | 17.3 nM |
| O=C(O)COc1ccc(Cl)cc1C1c2cccc(F)c2CCN1C(=O)OCCc1ccccc1Cl (racemic) [Example 179, (±)-1-(2-Carboxymethoxy-5-chloro-phenyl)-5-fluoro-3,4-dihydro-1H-isoquinoline-2-carboxylic acid 2-(2-chloro-phenyl)-ethyl ester] | – | 39.5 nM |
